# In patent US7456165B2, “HCV NS5B inhibitors” (Bristol-Myers Squibb Company, priority 2006, dated 2008):
# What was measured:
# HCV replicon cells = assay: HCV replicon FRET assay; assay type: cell-based; settings: Hepatitis C virus
# Description: FRET Assay Preparation. To perform the HCV FRET screening assay, 96-well cell culture plates were used. The FRET peptide (Anaspec, Inc.) (Taliani et al., Anal Biochem. 1996, 240, 60-67) contains a fluorescence donor, EDANS, near one end of the peptide and an acceptor, DABCYL, near the other end. The fluorescence of the peptide is quenched by […] resonance energy transfer (RET) between the donor and the acceptor, but as the NS3 protease cleaves the peptide the products are released from RET quenching and the fluorescence of the donor becomes apparent. The assay reagent was made as follows: 5× cell Luciferase cell culture lysis reagent from Promega (#E153A) diluted to 1× with dH2O, NaCl added to 150 mM final, the FRET peptide diluted to 20 μM final from a 2 mM stock.
# To prepare plates, HCV replicon cells, with or without a Renilla luciferase reporter gene, were trypsinized and placed into each well of a 96-well plate with titrated test compounds added in columns 3 through 12; columns 1 and 2 contained a control compound (HCV protease inhibitor), and the bottom row contained cells without compound. The plates were then placed in a CO2 incubator at 37° C.
# Assays. Subsequent to addition of the test compounds described above (FRET Assay Preparation), at various times the plate was removed and Alamar blue solution (Trek Diagnostics, #00-100) was added per well as a measure of cellular toxicity. After reading in a Cytoflour 4000 instrument (PE Biosystems), plates were rinsed with PBS and then used for FRET assay by the addition of 30 ul of the FRET peptide assay reagent described above (FRET Assay Preparation) per well. The plate was then placed into the Cytoflour 4000 instrument which had been set to 340 excite/490 emission, automatic mode for 20 cycles and the plate read in a kinetic mode. Typically, the signal to noise using an endpoint analysis after the reads was at least three-fold. Alternatively, after Alamar blue reading, plates were rinsed with PBS, 50 ul of DMEM (high glucose) without phenol red was added and plates were then used for luciferase assay using the Promega Dual-Glo Luciferase Assay System.
# Compound analysis was determined by quantification of the relative HCV replicon inhibition and the relative cytotoxicity values. To calculate cytoxicity values, the average Alamar Blue fluorescence signals from the control wells were set as 100% non-toxic. The individual signals in each of the compound test wells were then divided by the average control signal and multiplied by 100% to determine […]. To calculate the HCV replicon inhibition values, an average background value was obtained from the two wells containing the highest amount of HCV protease inhibitor at the end of the assay period. These numbers were similar to those obtained from naïve Huh-7 cells.
# The background numbers were then subtracted from the average signal obtained from the control wells and this number was used as 100% activity. The individual signals in each of the compound test wells were then divided by the averaged control values after background subtraction and multiplied by 100% to determine percent activity. EC50 values for a protease inhibitor titration were calculated as the concentration which caused a 50% reduction in FRET or luciferase activity. The two numbers generated for the compound plate, percent cytoxicity and percent activity were used to determine compounds of interest for further analysis.
# HCV NS5B = molecular target: T1, HCV NS5B (Hepatitis C virus genotype 1b, UniProt Q9WMX2); assay: HCV NS5B RdRp enzyme assay (preincubation protocol); assay type: biochemical; settings: HCV NS5B RdRp genotype 1b
# T1 construct: The protein was expressed with an 18 amino acid C-terminal truncation to enhance the solubility; made in house; host or cells: E. coli BL21(DE3)
# Method: HCV NS5B RdRp cloning, expression, and purification. The cDNA encoding the NS5B protein of HCV, genotype 1b, was cloned into the pET21a expression vector. The protein was expressed with an 18 amino acid C-terminal truncation to enhance the solubility. The E. coli competent cell line BL21(DE3) was used for expression of the protein. Cultures were grown at 37° C. for ˜4 hours until the cultures reached an optical density of 2.0 at 600 nm. The cultures were cooled to 20° C. and induced with 1 mM IPTG. Fresh ampicillin was added to a final concentration of 50 μg/ml and the cells were grown overnight at 20° C.
# Cell pellets (3 L) were lysed for purification to yield 15-24 mgs of purified NS5B. The lysis buffer consisted of 20 mM Tris-HCl, pH 7.4, 500 mM NaCl, 0.5% triton X-100, 1 mM DTT, 1 mM EDTA, 20% glycerol, 0.5 mg/ml lysozyme, 10 mM MgCl2, 15 ug/ml deoxyribonuclease I, and Complete TM protease inhibitor tablets (Roche). After addition of the lysis buffer, frozen cell pellets were resuspended using a tissue homogenizer. To reduce the viscosity of the sample, aliquots of the lysate were sonicated on ice using a microtip attached to a Branson sonicator. The sonicated lysate was centrifuged at 100,000×g for 1 hr at 4° C. and filtered through a 0.2 μm filter unit (Corning).
# The protein was purified using three sequential chromatography steps: Heparin sepharose CL-6B, polyU sepharose 4B, and Hitrap SP sepharose (Pharmacia). The chromatography buffers were identical to the lysis buffer but contained no lysozyme, deoxyribonuclease I, MgCl2 or protease inhibitor and the NaCl concentration of the buffer was adjusted according to the requirements for charging the protein onto the column. Each column was eluted with a NaCl gradient which varied in length from 5-50 column volumes depending on the column type. After the final chromatography step, the resulting purity of the enzyme is >90% based on SDS-PAGE analysis. The enzyme was aliquoted and stored at −80° C.
# Standard HCV NS5B RdRp enzyme assay. HCV RdRp genotype 1b assays were run in a final volume of 60 μl in 96 well plates (Costar 3912 H. The assay buffer is composed of 20 mM Hepes, pH 7.5, 2.5 mM KCl, 2.5 mM MgCl2, 1 mM DTT, 1.6 U RNAse inhibitor (Promega N2515), 0.1 mg/ml BSA (Promega R3961), and 2% glycerol. All compounds were serially diluted (3-fold) in DMSO and diluted further in water such that the final concentration of DMSO in the assay was 2%. HCV RdRp genotype 1b enzyme was used at a final concentration of 28 nM. A polyA template was used at 6 nM, and a biotinylated oligo-dT12 primer was used at 180 nM final concentration. Template was obtained commercially (Amersham 27-4110). Biotinylated primer was prepared by Sigma Genosys. 3H-UTP was used at 0.6 μCi (0.29 μM total UTP). Reactions were initiated by the addition of enzyme, incubated at 30° C. for 60 min, and stopped by adding 25 μl of 50 mM EDTA containing SPA beads (4 μg/μl, Amersham RPNQ 0007 H. Plates were read on a Packard Top Count NXT after >1 hr incubation at room temperature.
# Modified HCV NS5B RdRp enzyme assay. A modified enzyme assay was performed essentially as described for the standard enzyme assay except for the following: The biotinylated oligo dT12 primer was precaptured on streptavidin-coated SPA beads by mixing primer and beads in assay buffer and incubating at room temperature for one hour. Unbound primer was removed after centrifugation. The primer-bound beads were resuspended in 20 mM Hepes buffer, pH 7.5 and used in the assay at final concentrations of 20 nM primer and 0.67 μg/μl beads. Order of addition in the assay: enzyme (14 nM) was added to diluted compound followed by the addition of a mixture of template (0.2 nM), 3H-UTP (0.6 μCi, 0.29 μM), and primer-bound beads, to initiate the reaction; concentrations given are final. Reactions were allowed to proceed for 4 hours at 30° C.
# IC50 values for compounds were determined using seven different [I]. […]
# T1 sequence (Q9WMX2 2420-2992): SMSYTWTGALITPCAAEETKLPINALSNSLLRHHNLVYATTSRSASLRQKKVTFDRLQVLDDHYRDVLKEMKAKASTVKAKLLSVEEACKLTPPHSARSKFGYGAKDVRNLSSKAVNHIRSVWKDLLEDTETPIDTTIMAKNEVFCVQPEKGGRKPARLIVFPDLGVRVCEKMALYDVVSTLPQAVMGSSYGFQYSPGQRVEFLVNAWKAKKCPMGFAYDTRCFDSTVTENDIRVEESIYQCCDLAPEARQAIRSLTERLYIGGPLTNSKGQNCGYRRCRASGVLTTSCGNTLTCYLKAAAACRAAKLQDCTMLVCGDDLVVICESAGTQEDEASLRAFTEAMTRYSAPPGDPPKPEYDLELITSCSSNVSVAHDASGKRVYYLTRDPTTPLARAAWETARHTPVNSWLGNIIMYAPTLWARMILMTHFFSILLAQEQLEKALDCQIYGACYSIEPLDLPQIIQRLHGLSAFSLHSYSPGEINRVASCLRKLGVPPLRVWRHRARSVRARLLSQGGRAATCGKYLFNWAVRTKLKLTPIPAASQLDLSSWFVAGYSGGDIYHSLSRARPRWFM
SMILES,EC50 (HCV replicon cells) [nM],IC50 (HCV NS5B) [nM]
"COC(=O)c1ccc2c(C3CCCCC3)c3n(c2c1)CC(c1nc(CS(C)(=O)=O)no1)=Cc1ccccc1-3 [Example 26, 13-cyclohexyl-6-[3-[(methylsulfonyl)methyl]-1,2,4-oxadiazol-5-yl-]7H-indolo[2,1-a][2]benzazepine-10-carboxylic acid, methyl ester]",> 500,> 500
"CS(=O)(=O)Cc1noc(C2=Cc3ccccc3-c3c(C4CCCCC4)c4ccc(C(=O)O)cc4n3C2)n1 [Example 27, 13-cyclohexyl-6-[3-[(methylsulfonyl)methyl]-1,2,4-oxadiazol-5-yl]-7H-indolo[2,1-a][2]benzazepine-10-carboxylic acid]",> 500,1 to 500
"CN(C)S(=O)(=O)NC(=O)c1ccc2c(C3CCCCC3)c3n(c2c1)CC(c1nc(CS(C)(=O)=O)no1)=Cc1ccccc1-3 [Example 28, 13-cyclohexyl-N-[(dimethylamino)sulfonyl]-6-[3-[(methylsulfonyl)methyl]-1,2,4-oxadiazol-5-yl]-7H-indolo[2,1-a][2]benzazepine-10-carboxamide]",> 500,1 to 500
"Nc1nnc(C2=Cc3ccccc3-c3c(C4CCCCC4)c4ccc(C(=O)O)cc4n3C2)o1 [Example 30, 6-(5-amino-1,3,4-oxadiazol-2-yl)-13-cyclohexyl-7H-indolo[2,1-a][2]benzazepine-10-carboxylic acid]",> 500,> 500
"O=C(CN1CCOCC1)Nc1nnc(C2=Cc3ccccc3-c3c(C4CCCCC4)c4ccc(C(=O)O)cc4n3C2)o1 [Example 33, 13-cyclohexyl-6-[5-[(4-morpholinylacetyl)amino]-1,3,4-oxadiazol-2-yl]-7H-indolo[2,1-a][2]benzazepine-10-carboxylic acid]",> 500,1 to 500
COC(=O)c1ccc2c(C3CCCCC3)c3n(c2c1)CC(c1ncc(CCC(=O)N2CCOCC2)o1)=Cc1ccccc1-3 [Example 35],> 500,> 500
"O=C(O)c1ccc2c(C3CCCCC3)c3n(c2c1)CC(c1ncc(CCC(=O)N2CCOCC2)o1)=Cc1ccccc1-3 [Example 36, 13-cyclohexyl-6-[5-[3-(4-morpholinyl)-3-oxopropyl]-2-oxazolyl]-7H-indolo[2,1-a][2]benzazepine-10-carboxylic acid]",> 500,1 to 500
"CN(C)S(=O)(=O)NC(=O)c1ccc2c(C3CCCCC3)c3n(c2c1)CC(c1ncc(CCC(=O)N2CCOCC2)o1)=Cc1ccccc1-3 [Example 37, 13-cyclohexyl-N-[(dimethylamino)sulfonyl]-6-[5-[3-(4-morpholinyl)-3-oxopropyl]-2-oxazolyl-]7H-indolo[2,1-a][2]benzazepine-10-carboxamide]",1 to 500,1 to 500
"CN(C)S(=O)(=O)NC(=O)c1ccc2c(C3CCCCC3)c3n(c2c1)CC(c1ncc(CCC(=O)N2CCOCC2)o1)Cc1ccccc1-3 (stereo not shown) [Example 38, 13-cyclohexyl-N-[(dimethylamino)sulfonyl]-6,7-dihydro-6-[5-[3-(4-morpholinyl)-3-oxopropyl]-2-oxazolyl]-5H-indolo[2,1-a][2]benzazepine-10-carboxamide]",1 to 500,1 to 500
"COC(=O)c1ccc2c(C3CCCCC3)c3n(c2c1)CC(c1nnc(CC2CCOCC2)o1)=Cc1ccccc1-3 [Example 39, 13-cyclohexyl-6-[5-[(tetrahydro-2H-pyran-4-yl)methyl]-1,3,4-oxadiazol-2-yl]-7H-indolo[2,1-a][2]benzazepine-10-carboxylic acid, methyl ester]",> 500,> 500
"COC(=O)c1ccc2c(C3CCCCC3)c3n(c2c1)CC(c1n[nH]c(CC2CCOCC2)n1)=Cc1ccccc1-3 [Example 40, 13-cyclohexyl-6-[5-[(tetrahydro-2H-pyran-4-yl)methyl]-1H-1,2,4-triazol-3-yl]-7H-indolo[2,1-a][2]benzazepine-10-carboxylic acid, methyl ester]",> 500,> 500
"COC(=O)c1ccc2c(C3CCCCC3)c3n(c2c1)CC(c1nc(CC2CCOCC2)n(C)n1)=Cc1ccccc1-3 [Example 41, 13-cyclohexyl-6-[1-methyl-5-[(tetrahydro-2H-pyran-4-yl)methyl]-1H-1,2,4-triazol-3-yl]-7H-indolo[2,1-a][2]benzazepine-10-carboxylic acid, methyl ester]",> 500,> 500
"Cn1nc(C2=Cc3ccccc3-c3c(C4CCCCC4)c4ccc(C(=O)O)cc4n3C2)nc1CC1CCOCC1 [Example 42, 13-cyclohexyl-6-[1-methyl-5-[(tetrahydro-2H-pyran-4-yl)methyl]-1H-1,2,4-triazol-3-yl]-7H-indolo[2,1-a][2]benzazepine-10-carboxylic acid]",> 500,> 500
"CN(C)S(=O)(=O)NC(=O)c1ccc2c(C3CCCCC3)c3n(c2c1)CC(c1nc(CC2CCOCC2)n(C)n1)=Cc1ccccc1-3 [Example 43, 13-cyclohexyl-N-[(dimethylamino)sulfonyl]-6-[1-methyl-5-[(tetrahydro-2H-pyran-4-yl)methyl]-1H-1,2,4-triazol-3-yl]-7H-indolo[2,1-a][2]benzazepine-10-carboxamide]",> 500,1 to 500
